{"source": "ChEMBL document CHEMBL5465560", "about": "“Selectivity Literature for EUbOPEN Chemogenomic Library” (2024)", "key": {"[1]": {"target": "RAC-alpha serine/threonine-protein kinase (Homo sapiens, UniProt P31749)", "sequence (P31749 whole entry)": "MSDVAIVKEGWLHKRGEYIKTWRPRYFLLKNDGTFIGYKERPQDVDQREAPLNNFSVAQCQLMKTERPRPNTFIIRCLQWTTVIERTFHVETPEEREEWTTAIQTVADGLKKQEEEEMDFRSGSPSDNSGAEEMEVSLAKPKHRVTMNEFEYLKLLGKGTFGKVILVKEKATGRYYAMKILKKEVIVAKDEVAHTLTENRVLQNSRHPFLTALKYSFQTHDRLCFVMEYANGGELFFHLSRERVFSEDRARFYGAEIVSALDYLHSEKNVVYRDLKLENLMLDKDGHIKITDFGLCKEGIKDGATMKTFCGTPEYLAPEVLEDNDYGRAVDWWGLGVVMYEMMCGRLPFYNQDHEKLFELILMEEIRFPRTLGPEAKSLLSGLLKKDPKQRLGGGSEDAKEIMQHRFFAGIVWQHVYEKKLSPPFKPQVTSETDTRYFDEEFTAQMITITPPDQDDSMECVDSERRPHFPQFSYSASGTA", "assay": "Selectivity interaction (KinomeScan (DiscoverX)) EUB0000666a AKT1", "conditions": "at 10 µM"}, "[2]": {"target": "T1, Histone-lysine N-methyltransferase SETD7 (Homo sapiens) (UniProt Q8WTS6)", "T1 sequence (whole entry)": "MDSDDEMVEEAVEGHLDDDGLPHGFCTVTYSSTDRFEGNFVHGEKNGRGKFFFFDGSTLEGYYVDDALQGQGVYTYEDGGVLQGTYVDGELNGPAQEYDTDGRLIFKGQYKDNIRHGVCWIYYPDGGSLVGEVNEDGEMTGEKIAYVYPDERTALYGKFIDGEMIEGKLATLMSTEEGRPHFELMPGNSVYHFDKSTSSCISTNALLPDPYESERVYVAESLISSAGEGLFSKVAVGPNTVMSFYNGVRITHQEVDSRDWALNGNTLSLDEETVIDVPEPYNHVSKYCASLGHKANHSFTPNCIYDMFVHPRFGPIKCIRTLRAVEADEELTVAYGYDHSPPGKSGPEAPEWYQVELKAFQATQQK", "conditions": "at 1 µM"}, "[3]": {"target": "STE20-like serine/threonine-protein kinase (Homo sapiens, UniProt Q9H2G2)", "sequence (Q9H2G2 whole entry, looked up)": "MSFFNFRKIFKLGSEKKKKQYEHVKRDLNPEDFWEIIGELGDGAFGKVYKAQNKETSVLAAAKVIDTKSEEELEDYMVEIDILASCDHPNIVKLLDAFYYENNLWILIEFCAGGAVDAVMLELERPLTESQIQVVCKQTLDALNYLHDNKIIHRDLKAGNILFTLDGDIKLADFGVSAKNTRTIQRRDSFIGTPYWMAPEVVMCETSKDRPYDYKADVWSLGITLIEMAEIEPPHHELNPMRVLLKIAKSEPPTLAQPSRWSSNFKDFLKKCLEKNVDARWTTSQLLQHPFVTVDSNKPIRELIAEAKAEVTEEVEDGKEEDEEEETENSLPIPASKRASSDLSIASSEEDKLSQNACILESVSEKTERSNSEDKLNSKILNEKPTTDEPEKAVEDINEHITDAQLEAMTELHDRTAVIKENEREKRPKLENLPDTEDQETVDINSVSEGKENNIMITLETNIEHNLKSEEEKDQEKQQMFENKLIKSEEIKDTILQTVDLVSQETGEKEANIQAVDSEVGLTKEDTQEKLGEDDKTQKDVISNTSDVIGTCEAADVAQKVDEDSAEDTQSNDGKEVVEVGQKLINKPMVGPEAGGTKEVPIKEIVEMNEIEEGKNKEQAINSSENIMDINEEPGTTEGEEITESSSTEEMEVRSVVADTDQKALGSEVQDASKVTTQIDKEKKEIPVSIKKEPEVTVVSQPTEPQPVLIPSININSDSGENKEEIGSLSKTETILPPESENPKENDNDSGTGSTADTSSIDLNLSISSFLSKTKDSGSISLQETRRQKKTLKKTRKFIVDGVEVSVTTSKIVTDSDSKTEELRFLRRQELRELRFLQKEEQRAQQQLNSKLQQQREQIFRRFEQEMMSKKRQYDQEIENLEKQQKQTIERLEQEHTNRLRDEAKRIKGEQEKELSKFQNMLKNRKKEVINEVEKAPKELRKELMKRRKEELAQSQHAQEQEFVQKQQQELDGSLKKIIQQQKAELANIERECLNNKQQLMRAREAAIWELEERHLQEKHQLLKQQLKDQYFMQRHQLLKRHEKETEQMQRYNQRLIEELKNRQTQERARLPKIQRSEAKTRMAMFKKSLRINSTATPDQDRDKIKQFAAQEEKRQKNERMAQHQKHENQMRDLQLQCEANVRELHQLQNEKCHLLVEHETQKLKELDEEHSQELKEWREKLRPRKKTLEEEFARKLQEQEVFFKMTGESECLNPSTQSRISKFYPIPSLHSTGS", "assay": "Selectivity interaction (Kinase panel (KiNativ target engagement assay in Jurkat cells)) EUB0001635a SLK", "format": "cell-based", "conditions": "Selectivity number of off-targets 0.0, Selectivity number of targets 233.0, Source Knowledge https://www.sciencedirect.com/science/article/pii/S2451945619300674?via%3Dihub, at 1 µM"}, "[4]": {"target": "T2, Serine/threonine-protein kinase D1 (Homo sapiens) (UniProt Q15139)", "T2 sequence (whole entry)": "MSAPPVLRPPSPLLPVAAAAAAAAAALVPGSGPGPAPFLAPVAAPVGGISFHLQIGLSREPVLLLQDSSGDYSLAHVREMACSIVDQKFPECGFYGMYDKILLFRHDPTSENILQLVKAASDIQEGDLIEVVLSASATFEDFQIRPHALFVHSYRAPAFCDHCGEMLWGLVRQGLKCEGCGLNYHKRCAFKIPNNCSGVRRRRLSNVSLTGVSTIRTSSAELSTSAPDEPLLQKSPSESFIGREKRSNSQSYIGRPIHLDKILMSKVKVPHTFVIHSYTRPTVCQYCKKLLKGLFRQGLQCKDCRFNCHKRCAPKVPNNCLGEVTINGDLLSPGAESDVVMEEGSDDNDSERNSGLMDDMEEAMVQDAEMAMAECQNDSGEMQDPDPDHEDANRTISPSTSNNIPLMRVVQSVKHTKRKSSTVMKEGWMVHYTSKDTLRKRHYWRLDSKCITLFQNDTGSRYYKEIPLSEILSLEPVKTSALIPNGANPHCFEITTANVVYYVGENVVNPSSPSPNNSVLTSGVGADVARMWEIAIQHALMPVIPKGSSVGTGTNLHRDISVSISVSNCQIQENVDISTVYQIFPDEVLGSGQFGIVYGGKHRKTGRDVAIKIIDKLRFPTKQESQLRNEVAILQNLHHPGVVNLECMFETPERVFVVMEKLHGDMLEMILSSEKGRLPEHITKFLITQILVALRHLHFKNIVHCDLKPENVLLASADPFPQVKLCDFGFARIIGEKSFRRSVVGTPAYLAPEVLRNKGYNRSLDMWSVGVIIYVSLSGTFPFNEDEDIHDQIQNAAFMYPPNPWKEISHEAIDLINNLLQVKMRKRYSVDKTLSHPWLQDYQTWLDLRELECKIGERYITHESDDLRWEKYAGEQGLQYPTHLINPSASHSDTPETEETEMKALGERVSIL", "assay": "Selectivity interaction (Kinase panel (Invitrogen)) EUB0000639a PRKD1", "conditions": "at 200 nM"}, "[5]": {"target": "Mitogen-activated protein kinase kinase kinase 4 (Homo sapiens) (UniProt Q9Y6R4)", "sequence (Q9Y6R4 whole entry)": "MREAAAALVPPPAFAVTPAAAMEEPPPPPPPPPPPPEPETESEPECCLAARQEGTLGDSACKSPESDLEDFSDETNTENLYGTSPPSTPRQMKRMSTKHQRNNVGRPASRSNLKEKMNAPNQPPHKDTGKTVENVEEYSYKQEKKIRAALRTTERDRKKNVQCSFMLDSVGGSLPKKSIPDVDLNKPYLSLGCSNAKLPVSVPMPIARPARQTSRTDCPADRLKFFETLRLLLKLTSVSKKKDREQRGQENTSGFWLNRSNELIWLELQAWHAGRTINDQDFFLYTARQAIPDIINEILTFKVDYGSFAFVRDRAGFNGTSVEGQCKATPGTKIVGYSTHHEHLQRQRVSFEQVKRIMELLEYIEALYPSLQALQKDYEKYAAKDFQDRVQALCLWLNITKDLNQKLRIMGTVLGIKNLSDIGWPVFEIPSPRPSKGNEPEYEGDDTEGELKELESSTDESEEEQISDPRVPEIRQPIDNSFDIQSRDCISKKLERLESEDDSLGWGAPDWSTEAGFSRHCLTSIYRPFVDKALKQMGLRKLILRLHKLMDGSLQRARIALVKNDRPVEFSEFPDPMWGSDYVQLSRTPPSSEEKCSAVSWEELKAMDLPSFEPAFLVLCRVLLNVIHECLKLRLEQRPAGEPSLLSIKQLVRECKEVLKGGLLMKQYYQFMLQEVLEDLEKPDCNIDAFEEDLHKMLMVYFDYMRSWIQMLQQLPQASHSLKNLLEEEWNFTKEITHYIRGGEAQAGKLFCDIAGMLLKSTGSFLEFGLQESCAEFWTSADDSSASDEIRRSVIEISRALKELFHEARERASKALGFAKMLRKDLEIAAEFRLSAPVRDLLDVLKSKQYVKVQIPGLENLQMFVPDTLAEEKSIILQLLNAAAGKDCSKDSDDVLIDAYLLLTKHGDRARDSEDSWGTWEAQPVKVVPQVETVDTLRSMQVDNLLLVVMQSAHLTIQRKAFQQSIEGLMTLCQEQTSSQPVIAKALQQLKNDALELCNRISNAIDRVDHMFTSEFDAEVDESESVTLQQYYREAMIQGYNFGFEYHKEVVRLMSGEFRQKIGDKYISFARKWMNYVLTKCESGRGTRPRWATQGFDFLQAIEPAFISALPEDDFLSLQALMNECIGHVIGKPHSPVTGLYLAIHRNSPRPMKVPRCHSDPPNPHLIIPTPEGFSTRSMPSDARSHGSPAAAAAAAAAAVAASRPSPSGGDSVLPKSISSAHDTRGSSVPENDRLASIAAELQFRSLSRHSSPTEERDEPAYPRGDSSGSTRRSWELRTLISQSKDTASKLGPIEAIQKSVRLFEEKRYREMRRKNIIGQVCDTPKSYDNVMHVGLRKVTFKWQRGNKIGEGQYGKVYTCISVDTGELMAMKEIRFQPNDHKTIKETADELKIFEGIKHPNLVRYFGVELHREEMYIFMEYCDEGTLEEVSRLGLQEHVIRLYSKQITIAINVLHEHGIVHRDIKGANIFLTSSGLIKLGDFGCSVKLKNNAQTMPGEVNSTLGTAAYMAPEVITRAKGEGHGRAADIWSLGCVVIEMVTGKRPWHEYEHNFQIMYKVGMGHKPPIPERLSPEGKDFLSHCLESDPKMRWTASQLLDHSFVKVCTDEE", "assay": "Selectivity interaction (KinomeScan (DiscoverX)) EUB0000618a MAP3K4", "conditions": "at 10 µM"}, "[6]": {"target": "Epithelial discoidin domain-containing receptor 1 (Homo sapiens) (UniProt Q08345)", "assay": "Selectivity interaction (KinomeScan (DiscoverX)) EUB0000618a DDR1", "conditions": "at 10 µM"}, "[7]": {"target": "T3, STE20-related kinase adapter protein alpha (Homo sapiens) (UniProt Q7RTN6)", "T3 sequence (whole entry)": "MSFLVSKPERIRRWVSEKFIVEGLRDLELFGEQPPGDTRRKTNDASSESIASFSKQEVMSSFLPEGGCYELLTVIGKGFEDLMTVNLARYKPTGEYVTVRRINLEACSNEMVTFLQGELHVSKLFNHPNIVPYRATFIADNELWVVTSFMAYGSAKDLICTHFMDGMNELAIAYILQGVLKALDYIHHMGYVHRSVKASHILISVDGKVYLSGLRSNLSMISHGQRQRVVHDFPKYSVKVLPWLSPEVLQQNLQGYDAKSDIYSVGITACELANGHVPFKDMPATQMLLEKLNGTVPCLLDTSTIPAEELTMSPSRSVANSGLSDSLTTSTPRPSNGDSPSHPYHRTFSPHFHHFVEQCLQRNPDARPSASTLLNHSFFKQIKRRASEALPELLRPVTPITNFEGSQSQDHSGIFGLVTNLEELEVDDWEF", "assay": "Selectivity interaction (ActivX KiNativ screen (ex vivo kinase selectivity in human PBMCs)) EUB0001619a STRADA", "format": "cell-based", "conditions": "PBMC, at 1 µM"}, "[8]": {"target": "Histamine H1 receptor (Homo sapiens, UniProt P35367)", "sequence (P35367 whole entry)": "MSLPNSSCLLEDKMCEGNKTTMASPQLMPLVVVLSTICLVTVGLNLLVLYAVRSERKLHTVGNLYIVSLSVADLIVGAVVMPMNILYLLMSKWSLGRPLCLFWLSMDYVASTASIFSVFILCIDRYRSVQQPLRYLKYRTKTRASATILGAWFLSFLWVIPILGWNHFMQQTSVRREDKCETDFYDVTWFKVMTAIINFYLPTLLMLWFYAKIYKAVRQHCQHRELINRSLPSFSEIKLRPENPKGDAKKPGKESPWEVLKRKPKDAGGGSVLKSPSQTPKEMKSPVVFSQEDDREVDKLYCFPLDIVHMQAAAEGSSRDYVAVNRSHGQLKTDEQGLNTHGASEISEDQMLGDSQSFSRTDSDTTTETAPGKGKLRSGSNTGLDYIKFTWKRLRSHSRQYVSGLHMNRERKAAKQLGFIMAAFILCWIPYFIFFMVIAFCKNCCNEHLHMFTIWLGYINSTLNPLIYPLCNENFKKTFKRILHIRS", "assay": "Selectivity interaction (Panel of kinases, GPCRs, ion channels and transporters (enzymatic assay)) EUB0000266bCl HRH1"}, "[9]": {"target": "T4, Mitogen-activated protein kinase 12 (Homo sapiens) (UniProt P53778)", "T4 sequence (whole entry)": "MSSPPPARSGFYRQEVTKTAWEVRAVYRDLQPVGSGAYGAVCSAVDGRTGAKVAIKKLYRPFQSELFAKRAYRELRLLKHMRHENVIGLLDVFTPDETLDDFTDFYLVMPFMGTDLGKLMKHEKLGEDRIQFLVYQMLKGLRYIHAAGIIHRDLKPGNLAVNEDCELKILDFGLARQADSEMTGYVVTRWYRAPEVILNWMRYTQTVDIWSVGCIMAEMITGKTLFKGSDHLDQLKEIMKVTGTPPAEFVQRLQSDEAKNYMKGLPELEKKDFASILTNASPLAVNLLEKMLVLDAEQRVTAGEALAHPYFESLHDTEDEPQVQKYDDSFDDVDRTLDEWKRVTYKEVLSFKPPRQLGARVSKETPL", "assay": "Selectivity interaction (KinomeScan (DiscoverX)) EUB0000607a MAPK12", "conditions": "at 10 µM"}, "[10]": {"tested_on": "Phosphatidylinositol 4,5-bisphosphate 3-kinase catalytic subunit alpha isoform (Homo sapiens), P42336 [E545K]", "sequence (P42336 whole entry E545K, canonical isoform)": "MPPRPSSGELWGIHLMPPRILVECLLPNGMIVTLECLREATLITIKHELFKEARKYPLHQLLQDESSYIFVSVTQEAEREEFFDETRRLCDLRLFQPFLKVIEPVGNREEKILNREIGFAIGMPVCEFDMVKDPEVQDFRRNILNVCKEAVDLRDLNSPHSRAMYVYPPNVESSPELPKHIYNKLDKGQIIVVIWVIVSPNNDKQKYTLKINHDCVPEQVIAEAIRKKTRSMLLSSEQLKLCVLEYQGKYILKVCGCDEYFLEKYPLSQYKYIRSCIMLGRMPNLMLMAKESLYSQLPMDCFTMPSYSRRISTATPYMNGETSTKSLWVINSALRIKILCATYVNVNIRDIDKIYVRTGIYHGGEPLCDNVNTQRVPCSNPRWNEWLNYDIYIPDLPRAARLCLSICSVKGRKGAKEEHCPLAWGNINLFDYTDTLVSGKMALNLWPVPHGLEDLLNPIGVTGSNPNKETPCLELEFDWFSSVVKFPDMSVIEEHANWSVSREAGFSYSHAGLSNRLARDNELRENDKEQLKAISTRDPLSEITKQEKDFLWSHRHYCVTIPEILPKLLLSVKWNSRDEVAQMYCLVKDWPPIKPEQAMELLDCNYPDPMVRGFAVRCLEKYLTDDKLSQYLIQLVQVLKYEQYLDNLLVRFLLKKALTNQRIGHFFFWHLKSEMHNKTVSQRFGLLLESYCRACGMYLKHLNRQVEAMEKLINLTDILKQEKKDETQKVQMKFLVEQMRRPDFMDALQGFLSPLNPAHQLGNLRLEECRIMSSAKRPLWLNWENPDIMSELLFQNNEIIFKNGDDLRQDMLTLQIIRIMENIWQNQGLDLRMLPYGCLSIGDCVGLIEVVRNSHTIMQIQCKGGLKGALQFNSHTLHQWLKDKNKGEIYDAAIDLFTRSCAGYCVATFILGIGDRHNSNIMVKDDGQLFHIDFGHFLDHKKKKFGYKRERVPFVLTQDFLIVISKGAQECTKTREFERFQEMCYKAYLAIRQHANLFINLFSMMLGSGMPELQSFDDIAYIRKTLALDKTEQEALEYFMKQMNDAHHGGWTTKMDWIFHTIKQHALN", "conditions": "at 10 µM"}}, "data": [{"smiles": "O=C(NOC[C@H](O)CO)c1ccc(F)c(F)c1Nc1ccc(I)cc1F", "values": [{"measurement": "% of control", "setting": "[1]", "result": 81, "unit": "%"}]}, {"smiles": "CNCCN1CCC(c2cc(CN(C)C(=O)c3cccc(Oc4ccccc4)c3)ccn2)CC1", "values": [{"measurement": "% activity", "setting": "[2]", "result": "> 90", "unit": "%"}]}, {"smiles": "C=CC(=O)Nc1ccc(C(=O)Nc2[nH]nc3c2CN(C(=O)N[C@H](CN(C)C)c2ccccc2)C3(C)C)cc1", "values": [{"measurement": "% of engagement", "setting": "[3]", "result": -7.6, "unit": "%"}]}, {"smiles": "CC[C@@H]1[C@H](F)C(=O)N[C@@H]1COc1nccc2cc(C(N)=O)c(OC)cc12", "note": "[ZIMLOVISERTIB]", "values": [{"measurement": "% of inhibition", "setting": "[4]", "result": 5.76, "unit": "%"}]}, {"smiles": "O[C@H]1CC[C@H](Nc2ncc3nc(Nc4c(F)cc(F)cc4F)n([C@H]4CCOC4)c3n2)CC1", "values": [{"measurement": "% of control", "setting": "[5]", "result": 100, "unit": "%"}, {"measurement": "% of control", "setting": "[6]", "result": 27, "unit": "%"}]}, {"smiles": "N#Cc1cccc(-c2c[nH]c3ncnc(N4CCOCC4)c23)c1", "values": [{"measurement": "% of inhibition", "setting": "[7]", "result": 1, "unit": "%"}]}, {"smiles": "CCn1c(-c2nc3cc(C(=O)N4CCCC(N)C4)ccc3n2C)cc2ccccc21", "note": "(stereo not given)", "values": [{"measurement": "pXC50", "setting": "[8]", "result": "< 4.4", "unit": "M"}]}, {"smiles": "CNC(=O)Nc1ccc(-c2nc(N3CC4CCC(C3)O4)c3cnn(C4CCC5(CC4)OCCO5)c3n2)cc1", "values": [{"measurement": "% of control", "setting": "[9]", "result": 54, "unit": "%"}, {"measurement": "% of control", "setting": "[10]", "result": 11, "unit": "%"}]}]}
